Data taken from PMC12491383, “Organ and tumour dosimetry of ^177Lu-rhPSMA-10.1, a novel PSMA-targeted therapy: results from a Phase I trial” (European Journal of Nuclear Medicine and Molecular Imaging, 2025).

Test: SPECT/CT image-based normal organ dosimetry (MIRD S-value methodology), Phase I BET-PSMA-121
Format: in vivo, human
Settings: for Cumulative Absorbed Dose, Bone Marrow, % of dose limit / Cumulative Absorbed Dose, Kidney, % of dose limit / Cumulative Absorbed Dose, Salivary Glands, % of dose limit / Cumulative Absorbed Dose, Bone Marrow / Cumulative Absorbed Dose, Kidney / Cumulative Absorbed Dose, Salivary Glands: Cohort B; for Cumulative Absorbed Dose, Bone Marrow, % of dose limit: limit 2 Gy; for Cumulative Absorbed Dose, Salivary Glands, % of dose limit: limit 24 Gy
Source text: Figure 1 provides a schematic representation of the study. Enrolled patients were sequentially entered into one of the two cohorts. Cohort A received 5.55 GBq (150 mCi) of ^177Lu-rhPSMA-10.1 and Cohort B received 7.40 GBq (200 mCi) of ^177Lu-rhPSMA-10.1. Subsequent doses were delivered at 6-week intervals subject to individual tolerability and safety assessments. Each patient received between one and three cycles, with a maximum of three cycles of treatment being permitted in this initial part of the study. All administrations of ^177Lu-rhPSMA-10.1 were performed using intravenous injection under the supervision of the treating physician.
Multi-bed single-photon emission computed tomography (SPECT)/CT was conducted at 3-, 24-, 48- and 168-hours post-^177Lu-rhPSMA-10.1 administration in each treatment cycle for the estimation of organ and tumour absorbed doses in each patient. Prior to commencement of the study, each investigating site was required to complete a calibration of their dose calibrator and SPECT/CT system to ensure harmonised quantification of the imaging data. Quantitative reconstructions and all dosimetry analyses were carried out centrally by an independent dosimetry vendor (Radiopharmaceutical Imaging and Dosimetry LLC, Baltimore, MD).
The specific absorbed doses (Gy/GBq) in normal organs and tumours were determined using the Medical Internal Radiation Dose (MIRD) Committee S-value methodology. Individual patient organ masses, determined via CT delineation, were scaled to reflect deviations from reference phantom geometry. Cumulative organ absorbed doses (Gy) were calculated across all treatment cycles. Further details on dosimetry methodology are provided in the supplemental materials and have been reported in accordance with EANM guidance.
All patients underwent multi-bed single-photon emission computed tomography (SPECT)/CT at 3-, 24-, 48- and 168-hours post-^177Lu-rhPSMA-10.1 administration during each treatment cycle. The acquisition parameters are shown in Supplemental Table S1. All images were centrally reconstructed in 3D-RD-S using the iterative Ordered Subsets Expectation-Maximization (OSEM) algorithm with 40 iterations and 5 subsets. Attenuation, scatter, and the Collimator-Detector Response Function (CDRF) were modelled during the iterative process using a rotation-based projector. CT-based attenuation compensation was performed using the attenuation map generated from the CT image. Scatter was modelled using the Effective Source Scatter Estimation (ESSE) method.
Reconstructed images were converted to activity concentration units (Becquerel (Bq)/millilitre (mL)) using the calibration factor generated for each individual imaging system. Organ masses were individually determined using CT-based delineations and longitudinal SPECT activity statistics were based on these same delineations.
Time integrated activity coefficients (TIACs) were calculated for each target tissue. This was done by fitting each time–activity curve with an exponential function (mono, bi, or exponential uptake and washout) and integrating from time 0 to infinity. The simpler function was preferred provided the fit was adequate ([…]).
The TIAC in the bone marrow was derived from contours drawn around the marrow inside lumbar vertebrae L3–L5. Where lesions were present in the lumbar area, contours were drawn around either the femur heads, scapula or sternum depending on the anatomical coverage. The TIAC was then divided by the marrow mass in this region to give the TIAC concentration. The total bone marrow TIAC was be obtained as the product of this concentration and the standard International Commission on Radiological Protection (ICRP) bone marrow mass.
The S-value methodology was used to estimate the target tissue dose. […]

[1] = Patient 4, 3 cycles, 22.94 GBq cumulative
[2] = Patient 5, 3 cycles, 22.29 GBq cumulative
[3] = Patient 6, 3 cycles, 22.59 GBq cumulative
[4] = Patient 7, 3 cycles, 22.29 GBq cumulative
[5] = Patient 8, 3 cycles, 22.86 GBq cumulative
[6] = Patient 9, 3 cycles, 22.10 GBq cumulative
[7] = Patient 10, 3 cycles, 23.30 GBq cumulative
[8] = Patient 11, 1 cycle, 7.80 GBq cumulative
[9] = Patient 12, 1 cycle, 7.46 GBq cumulative
[10] = Patient 13, 3 cycles, 22.23 GBq cumulative

Compound: CC(C)(C)[Si](F)(c1ccc(C(=O)NC[C@@H](NC(=O)CN2CCN(CC(=O)[O-])CCN(CC(=O)[O-])CCN(CC(=O)[O-])CC2)C(=O)N[C@H](CCCCNC(=O)CCC(=O)NCCC[C@@H](NC(=O)CC[C@H](NC(=O)N[C@@H](CCC(=O)O)C(=O)O)C(=O)O)C(=O)O)C(=O)O)cc1)C(C)(C)C.[177Lu+3] [^177Lu-rhPSMA-10.1]
- Cumulative Absorbed Dose, Bone Marrow, % of dose limit [1]: 6.5%
- Cumulative Absorbed Dose, Kidney, % of dose limit (Patient 4, 3 cycles, 22.94 GBq cumulative, limit 23 Gy): 36%
- Cumulative Absorbed Dose, Salivary Glands, % of dose limit [1]: 12%
- Cumulative Absorbed Dose, Bone Marrow [2]: 0.07 Gy
- Cumulative Absorbed Dose, Kidney [2]: 6.25 Gy
- Cumulative Absorbed Dose, Salivary Glands [2]: 2.85 Gy
- Cumulative Absorbed Dose, Bone Marrow, % of dose limit [2]: 3.5%
- Cumulative Absorbed Dose, Kidney, % of dose limit (Patient 5, 3 cycles, 22.29 GBq cumulative, limit 23 Gy): 27%
- Cumulative Absorbed Dose, Salivary Glands, % of dose limit [2]: 12%
- Cumulative Absorbed Dose, Bone Marrow [3]: 0.42 Gy
- Cumulative Absorbed Dose, Kidney [3]: 7.31 Gy
- Cumulative Absorbed Dose, Salivary Glands [3]: 2.87 Gy
- Cumulative Absorbed Dose, Bone Marrow, % of dose limit [3]: 21%
- Cumulative Absorbed Dose, Kidney, % of dose limit (Patient 6, 3 cycles, 22.59 GBq cumulative, limit 23 Gy): 32%
- Cumulative Absorbed Dose, Salivary Glands, % of dose limit [3]: 12%
- Cumulative Absorbed Dose, Bone Marrow [4]: 0.05 Gy
- Cumulative Absorbed Dose, Kidney [4]: 4.02 Gy
- Cumulative Absorbed Dose, Salivary Glands [4]: 2.88 Gy
- Cumulative Absorbed Dose, Bone Marrow, % of dose limit [4]: 2.5%
- Cumulative Absorbed Dose, Kidney, % of dose limit (Patient 7, 3 cycles, 22.29 GBq cumulative, limit 23 Gy): 17%
- Cumulative Absorbed Dose, Salivary Glands, % of dose limit [4]: 12%
- Cumulative Absorbed Dose, Bone Marrow [5]: 0.24 Gy
- Cumulative Absorbed Dose, Kidney [5]: 5.18 Gy
- Cumulative Absorbed Dose, Salivary Glands [5]: 1.17 Gy
- Cumulative Absorbed Dose, Bone Marrow, % of dose limit [5]: 12%
- Cumulative Absorbed Dose, Kidney, % of dose limit (Patient 8, 3 cycles, 22.86 GBq cumulative, limit 23 Gy): 23%
- Cumulative Absorbed Dose, Salivary Glands, % of dose limit [5]: 4.9%
- Cumulative Absorbed Dose, Bone Marrow [6]: 0.05 Gy
- Cumulative Absorbed Dose, Kidney [6]: 5.18 Gy
- Cumulative Absorbed Dose, Salivary Glands [6]: 2.00 Gy
- Cumulative Absorbed Dose, Bone Marrow, % of dose limit [6]: 2.5%
- Cumulative Absorbed Dose, Kidney, % of dose limit (Patient 9, 3 cycles, 22.10 GBq cumulative, limit 23 Gy): 23%
- Cumulative Absorbed Dose, Salivary Glands, % of dose limit [6]: 8.3%
- Cumulative Absorbed Dose, Bone Marrow [7]: 0.03 Gy
- Cumulative Absorbed Dose, Kidney [7]: 4.29 Gy
- Cumulative Absorbed Dose, Salivary Glands [7]: 0.82 Gy
- Cumulative Absorbed Dose, Bone Marrow, % of dose limit [7]: 1.5%
- Cumulative Absorbed Dose, Kidney, % of dose limit (Patient 10, 3 cycles, 23.30 GBq cumulative, limit 23 Gy): 19%
- Cumulative Absorbed Dose, Salivary Glands, % of dose limit [7]: 3.4%
- Cumulative Absorbed Dose, Bone Marrow [8]: 0.23 Gy
- Cumulative Absorbed Dose, Kidney [8]: 1.52 Gy
- Cumulative Absorbed Dose, Salivary Glands [8]: 0.88 Gy
- Cumulative Absorbed Dose, Bone Marrow, % of dose limit [8]: 11%
- Cumulative Absorbed Dose, Kidney, % of dose limit (Patient 11, 1 cycle, 7.80 GBq cumulative, limit 23 Gy): 6.6%
- Cumulative Absorbed Dose, Salivary Glands, % of dose limit [8]: 3.7%
- Cumulative Absorbed Dose, Bone Marrow [9]: 0.04 Gy
- Cumulative Absorbed Dose, Kidney [9]: 1.71 Gy
- Cumulative Absorbed Dose, Salivary Glands [9]: 0.79 Gy
- Cumulative Absorbed Dose, Bone Marrow, % of dose limit [9]: 2.0%
- Cumulative Absorbed Dose, Kidney, % of dose limit (Patient 12, 1 cycle, 7.46 GBq cumulative, limit 23 Gy): 7.4%
- Cumulative Absorbed Dose, Salivary Glands, % of dose limit [9]: 3.3%
- Cumulative Absorbed Dose, Bone Marrow [10]: 0.05 Gy
- Cumulative Absorbed Dose, Kidney [10]: 4.63 Gy
- Cumulative Absorbed Dose, Salivary Glands [10]: 3.40 Gy
- Cumulative Absorbed Dose, Bone Marrow, % of dose limit [10]: 2.5%
- Cumulative Absorbed Dose, Kidney, % of dose limit (Patient 13, 3 cycles, 22.23 GBq cumulative, limit 23 Gy): 20%
- Cumulative Absorbed Dose, Salivary Glands, % of dose limit [10]: 14%
- Cumulative absorbed doses versus historical EBRT organ dose limits (all patients, both dosing cohorts): below the historical external beam radiation therapy (EBRT) organ dose limits
- Equivalent number of treatment cycles to reach the EBRT kidney dose limit of 23 Gy (at 7.4 GBq per cycle, range across the 13 patients): 6–17 cycles
- Cumulative absorbed dose to the kidney as % of the EBRT dose limit, highest reached (limit 23 Gy, maximum of three cycles): ≤ 36%
